Source: the supplement of paper PMC11061612

Tests used:
[1] = tested on: PC-3 (Prostate Carcinoma); assay: combination Emax (second highest fraction inhibited in the dose matrix, 72 h); higher = more inhibition; extreme values may be limits of the assay
Method in brief: (§1)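 Cell lines in DMEM/F12 or RPMI with 10% FBS were plated in 1536-well plates, held 24 hours at 37°C, 5% CO2, then given two-drug dose matrices for 72 hours (DMSO typically 0.2%). Viability was read by CellTiter-Glo 2.0 luminescence and scaled as inhibition from 0 (vehicle wells) to 1 (blank wells). Combination Emax is the second-highest inhibition in the matrix; Bliss excess is observed combination effect minus expected EA + EB − EA·EB, EA and EB being single-agent effects.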

[2] = tested on: SK-GT-4 (Esophageal Adenocarcinoma); assay: Bliss excess, mean over the matrix (fraction); higher = more synergy
Method in brief: as §1

[3] = tested on: NCI-H520 (Squamous Cell Lung Carcinoma); assay: as above
Method in brief: as §1

[4] = tested on: NCI-H3122 (Lung Adenocarcinoma); assay: as above
Method in brief: as §1

[5] = tested on: CHSA8926 (Chondrosarcoma); assay: as above
Method in brief: as §1

NCI-H2731 (Mesothelioma) = assay: as above
Method in brief: as §1

[6] = tested on: MOG-G-CCM (Low Grade Glioma); assay: as above
Method in brief: as §1

SJSA-1 (Osteosarcoma) = assay: as above
Method in brief: as §1

[7] = tested on: NCI-H929 (Plasma Cell Myeloma); assay: as above
Method in brief: as §1

[8] = tested on: HCC1187 (Breast Carcinoma); assay: as above
Method in brief: as §1

[9] = tested on: JHH-4 (Hepatocellular Carcinoma); assay: as above
Method in brief: as §1

[10] = tested on: PC-3 (Prostate Carcinoma); assay: as above
Method in brief: as §1

[11] = tested on: KY821 (Acute Myeloid Leukemia); assay: as above
Method in brief: as §1

[12] = tested on: KU812 (Chronic Myelogenous Leukemia); assay: as above
Method in brief: as §1

[13] = tested on: SU-DHL-5 (B-Cell Non-Hodgkin's Lymphoma); assay: as above
Method in brief: as §1

[14] = tested on: T-T (Esophageal Squamous Cell Carcinoma); assay: as above
Method in brief: as §1

[15] = tested on: IM-95 (Gastric Carcinoma); assay: as above
Method in brief: as §1

[16] = tested on: NCI-H661 (Non-Small Cell Lung Carcinoma); assay: as above
Method in brief: as §1

RD (Rhabdomyosarcoma) = assay: as above
Method in brief: as §1

[17] = tested on: H9 (T-Cell Non-Hodgkin's Lymphoma); assay: as above
Method in brief: as §1
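For Bliss excess, mean over the matrix in this document: after 72 h of two-drug dosing.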

SMILES | combination Emax [1] | Bliss excess [2] | Bliss excess [3] | Bliss excess [4] | Bliss excess [5] | Bliss excess (NCI-H2731 (Mesothelioma)) | Bliss excess [6] | Bliss excess (SJSA-1 (Osteosarcoma)) | Bliss excess [7] | Bliss excess [8] | Bliss excess [9] | Bliss excess [10] | Bliss excess [11] | Bliss excess [12] | Bliss excess [13] | Bliss excess [14] | Bliss excess [15] | Bliss excess [16] | Bliss excess (RD (Rhabdomyosarcoma)) | Bliss excess [17]
COc1nnc2ccc(N3CCC(c4ccc(OCCN5CCN(C)C(=O)[C@H]5C)cc4)CC3)nn12 [AZD5153] + CC1(C)CCC(CN2CCN(c3ccc(C(=O)NS(=O)(=O)c4ccc(NCC5CCOCC5)c([N+](=O)[O-])c4)c(Oc4cnc5[nH]ccc5c4)c3)CC2)=C(c2ccc(Cl)cc2)C1 [Venetoclax] (first compound max 1 µM, 7x7, partner max 1 µM) | 0.366 | -0.0444 | -0.0179 | -0.0372 | -0.0287 | -0.085 | -0.0471 | -0.0481 | 0.0001 | -0.0462 | -0.0442 | -0.109 | -0.0376 | -0.058 | -0.0107 | -0.0319 | -0.0663 | -0.0574 | -0.041 | 0.0162
CS(=O)(=O)CCNCc1ccc(-c2ccc3ncnc(Nc4ccc(OCc5cccc(F)c5)c(Cl)c4)c3c2)o1 [Lapatinib] + C[C@@H](Oc1cc(-c2cnn(C3CCNCC3)c2)cnc1N)c1c(Cl)ccc(F)c1Cl [Crizotinib] (first compound max 10 µM, 7x7, partner max 10 µM) | 0.494 | -0.0211 | -0.0975 | 0.0001 | -0.0231 | -0.0456 | -0.102 | -0.017 | -0.062 | -0.0156 | 0.0041 | -0.0174 | 0.0312 | -0.0598 | -0.0186 | -0.0172 | 0.0467 | -0.0252 | -0.0253 | -0.0249
Cc1cc2ncnn2cc1Nc1ncc2c(n1)n(C1CCOCC1)c(=O)n2C [AZD7648] + CCN(CCO)CCCOc1ccc2c(Nc3cc(CC(=O)Nc4cccc(F)c4)[nH]n3)ncnc2c1 [AZD2811] (first compound max 10 µM, 7x7, partner max 1 µM) | 0.243 | -0.0041 | 0.0195 | 0.0558 | -0.0331 | -0.0077 | 0.0246 | 0.0601 | -0.0223 | -0.0446 | 0.0136 | -0.0346 | 0.139 | 0.0578 | -0.0094 | 0.0089 | 0.0835 | 0.0564 | -0.0243 | -0.0378
CN(CCO)CC[C@H](CSc1ccccc1)Nc1ccc(S(=O)(=O)NC(=O)c2ccc(N3CCC([C@@H](O)c4ccccc4-c4ccc(Cl)cc4)CC3)cc2)cc1S(=O)(=O)C(F)(F)F [AZD4320] + CCN(CCO)CCCOc1ccc2c(Nc3cc(CC(=O)Nc4cccc(F)c4)[nH]n3)ncnc2c1 [AZD2811] (first compound max 1 µM, 7x7, partner max 1 µM) | 0.366 | -0.0425 | 0.0077 | -0.0456 | 0.0873 | -0.005 | 0.0683 | -0.0059 | -0.0119 | -0.0032 | -0.0226 | -0.0127 | 0.162 | -0.0082 | -0.143 | 0.01 | 0.134 | -0.0322 | 0.0335 | -0.0247
Cc1cc2ncnn2cc1Nc1ncc2c(n1)n(C1CCOCC1)c(=O)n2C [AZD7648] + CN(C)CCCOc1ccc(-c2ccc3ncc4c(c3c2)n(C2CCOCC2)c(=O)n4C)cn1 [AZD0156] (first compound max 10 µM, 7x7, partner max 1 µM) | 0.257 | -0.0406 | 0.0833 | -0.006 | 0.0091 | -0.0326 | -0.0609 | -0.0385 | -0.0727 | -0.0086 | 0.0025 | 0.0109 | 0.0429 | 0.0197 | 0.0272 | 0.0269 | 0.0121 | 0.0202 | -0.0142 | 0.0458
NC1(C(=O)N[C@@H](CCO)c2ccc(Cl)cc2)CCN(c2ncnc3[nH]ccc23)CC1 [Capivasertib] + Cn1cnc2c(F)c(Nc3ccc(Br)cc3Cl)c(C(=O)NOCCO)cc21 [Selumetinib] (first compound max 10 µM, 7x7, partner max 10 µM) | 0.258 | -0.0373 | -0.015 | 0.092 | 0.034 | -0.0115 | -0.0355 | -0.0321 | 0.0041 | 0.0534 | -0.0762 | -0.0419 | 0.0177 | -0.0282 | 0.0547 | 0.095 | -0.0017 | -0.0074 | 0.0942 | 0.0271
COc1nnc2ccc(N3CCC(c4ccc(OCCN5CCN(C)C(=O)[C@H]5C)cc4)CC3)nn12 [AZD5153] + CCN(CCO)CCCOc1ccc2c(Nc3cc(CC(=O)Nc4cccc(F)c4)[nH]n3)ncnc2c1 [AZD2811] (first compound max 1 µM, 7x7, partner max 1 µM) | 0.39 | -0.0421 | 0.0242 | -0.0217 | -0.035 | -0.0294 | -0.052 | -0.0335 | -0.0026 | -0.0934 | -0.0334 | -0.0257 | 0.0574 | -0.0011 | -0.0638 | -0.0284 | -0.0664 | -0.0318 | 0.0001 | -0.0163
CN(CCO)CC[C@H](CSc1ccccc1)Nc1ccc(S(=O)(=O)NC(=O)c2ccc(N3CCC([C@@H](O)c4ccccc4-c4ccc(Cl)cc4)CC3)cc2)cc1S(=O)(=O)C(F)(F)F [AZD4320] + C1CN(CCC1(C(=O)N[C@@H](CCO)C2=CC=C(C=C2)Cl)N)C3=NC=NC4=C3C=CN4 [Capivasertib] (first compound max 1 µM, 7x7, partner max 3 µM) | 0.231 | -0.0345 | -0.0637 | -0.0613 | -0.0059 | -0.0435 | -0.0525 | 0.0243 | -0.0088 | -0.0276 | -0.0411 | -0.053 | 0.0157 | 0.0154 | 0.0065 | -0.0171 | -0.0545 | -0.0347 | -0.0764 | 0.0026
CC1(C)CCC(CN2CCN(c3ccc(C(=O)NS(=O)(=O)c4ccc(NCC5CCOCC5)c([N+](=O)[O-])c4)c(Oc4cnc5[nH]ccc5c4)c3)CC2)=C(c2ccc(Cl)cc2)C1 [Venetoclax] + C[C@@H]1COCCN1C2=NC(=NC(=C2)C3(CC3)[S@](=N)(=O)C)C4=C5C=CNC5=NC=C4 [AZD6738] (first compound max 1 µM, 7x7, partner max 10 µM) | 0.517 | -0.0364 | -0.0733 | -0.0649 | -0.0216 | -0.0713 | -0.045 | -0.0447 | -0.0567 | -0.0095 | -0.0399 | -0.035 | -0.0336 | -0.0055 | -0.0214 | -0.0286 | -0.0191 | -0.0698 | 0.002 | 0.0113
Cn1cnc2c(F)c(Nc3ccc(Br)cc3Cl)c(C(=O)NOCCO)cc21 [Selumetinib] + C=CCn1c(=O)c2cnc(Nc3ccc(N4CCN(C)CC4)cc3)nc2n1-c1cccc(C(C)(C)O)n1 [AZD1775] (first compound max 10 µM, partner max 1 µM) | 0.165 | -0.0203 | -0.0795 | -0.126 | -0.0377 | -0.042 | -0.0923 | -0.0275 | 0.0127 | -0.0201 | -0.0782 | -0.0947 | -0.115 | -0.0367 | 0.0041 | -0.056 | 0.0309 | -0.0891 | -0.0128 | -0.0037
CC1(C)CCC(CN2CCN(c3ccc(C(=O)NS(=O)(=O)c4ccc(NCC5CCOCC5)c([N+](=O)[O-])c4)c(Oc4cnc5[nH]ccc5c4)c3)CC2)=C(c2ccc(Cl)cc2)C1 [Venetoclax] + C=CCn1c(=O)c2cnc(Nc3ccc(N4CCN(C)CC4)cc3)nc2n1-c1cccc(C(C)(C)O)n1 [AZD1775] (first compound max 1 µM, partner max 1 µM) | 0.29 | 0.0384 | -0.0031 | -0.0505 | -0.0333 | -0.0295 | 0.0303 | -0.0733 | 0.0499 | -0.0522 | -0.0538 | 0.0286 | -0.0104 | 0.0294 | -0.0814 | 0.0832 | 0.0197 | -0.0588 | -0.0163 | -0.0295
Cn1cnc2c(F)c(Nc3ccc(Br)cc3Cl)c(C(=O)NOCCO)cc21 [Selumetinib] + C[C@@H]1COCCN1C2=NC(=NC(=C2)C3(CC3)[S@](=N)(=O)C)C4=C5C=CNC5=NC=C4 [AZD6738] (first compound max 10 µM, 7x7, partner max 10 µM) | 0.39 | 0.017 | -0.0804 | -0.0471 | -0.031 | -0.0187 | -0.0704 | 0.0241 | -0.121 | -0.0539 | -0.0395 | -0.036 | -0.0519 | -0.0779 | 0.074 | -0.041 | 0.0554 | -0.0627 | 0.0877 | -0.03
CC1(C)CCC(CN2CCN(c3ccc(C(=O)NS(=O)(=O)c4ccc(NCC5CCOCC5)c([N+](=O)[O-])c4)c(Oc4cnc5[nH]ccc5c4)c3)CC2)=C(c2ccc(Cl)cc2)C1 [Venetoclax] + C[C@@H](Nc1cc(F)cc(F)c1)c1cc(C(=O)N(C)C)cc2c(=O)cc(N3CCOCC3)oc12 [AZD8186] (first compound max 1 µM, 7x7, partner max 3 µM) | 0.312 | -0.0263 | -0.0637 | -0.0311 | 0.0214 | -0.0484 | 0.0384 | -0.0247 | -0.007 | -0.0069 | 0.0064 | 0.0065 | 0.0235 | -0.024 | 0.0358 | 0.0094 | -0.068 | -0.0241 | 0.0032 | -0.0159
Cc1c2c(nn1C)CSCc1cc(n(C)n1)CSc1cc(c3ccccc3c1)OCCCc1c(C(=O)O)n(C)c3c-2c(Cl)ccc13 [AZD5991] + Cn1cnc2c(F)c(Nc3ccc(Br)cc3Cl)c(C(=O)NOCCO)cc21 [Selumetinib] (first compound max 1 µM, 7x7, partner max 3 µM) | 0.245 | -0.0385 | -0.0116 | -0.0255 | -0.0772 | -0.0354 | -0.0241 | -0.0733 | 0.0275 | -0.0139 | 0.0244 | -0.0029 | 0.0044 | 0.0224 | 0.0221 | 0.0289 | 0.0906 | -0.0169 | 0.039 | 0.0145
